US5348953A, “Substituted azetidinones as anti-inflammatory and antidegenerative agents” (Merck & Co., Inc., priority 1992, dated 1994)

The compounds below were run against T1, Human Polymorphonuclear Leukocyte Elastase (Homo sapiens, UniProt P08246) (assay: Inhibition of human polymorphonuclear leukocyte elastase via hydrolysis of Boc-AAPAN or Boc-AAPVN). Details: pH 7.5; second order rate constant for inactivation; Formula A, M n-propyl, R2 4-methyl (TABLE 1); read-out: kobs /[I].
T1 construct: Crude extract of human polymorphonuclear leukocytes (PMN) containing elastase activity; from tissue; host or cells: human polymorphonuclear leukocytes (crude extract)
T1 sequence (P08246 30-267): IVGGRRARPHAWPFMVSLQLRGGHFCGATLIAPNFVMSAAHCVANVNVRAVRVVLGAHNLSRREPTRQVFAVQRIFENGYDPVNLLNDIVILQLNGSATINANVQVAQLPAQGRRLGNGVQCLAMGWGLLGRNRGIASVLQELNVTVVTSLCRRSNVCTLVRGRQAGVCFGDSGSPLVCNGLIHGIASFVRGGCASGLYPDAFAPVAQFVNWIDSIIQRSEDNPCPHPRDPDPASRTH
Type: biochemical
Procedure: Enzyme Assays for the Inhibition of Human Polymorphonuclear Leukocyte
Elastase Via Hydrolysis of
N-t-Boc-alanyl-alanyl-prolylalanine-p-nitroanilide (Boc-AAPAN) or
N-t-Boc-alanyl-prolylvaline-p-nitroanilide (Boc-AAPVN) Reagent:
0.05M TES (N-tris[hydroxymethyl]methyl-2-amino-ethanesulfonic acid) Buffer, pH 7.5.
0.2 mM Boc-AAPAN or Boc-AAPVN.
To prepare substrate, the solid was first dissolved in 10.0 ml DMSO. Buffer at pH 7.5 was then added to a final volume of 100 ml.
Crude extract of human polymorphonuclear leukocytes (PMN) containing elastase activity.
Inhibitors (azetidinones) to be tested dissolved in DMSO just before use.
To 1.0 ml of 0.2 mM Boc-AAPAN in a cuvette, 0.01-0.1 ml of DMSO with or without inhibitor was added. After mixing, a measurement was taken at 410 mμ to detect any spontaneous hydrolysis due to presence of test compound. 0.05 Milliliters of PMN extract was then added and the ΔOD/min at 410 mμ was measured and recorded. Beckman model 35 spectrophotometer was used.
Results in Table I were reported as ID50, effective dosage in micrograms per milliliter (μg/ml) for 50% inhibition of the enzyme activity 2 minutes after zero time.
Results were also expressed as Ki, the micromolar concentration of the inhibitor (μM) giving 50% of the control enzyme activity; or as ^k obs/I which is the second order rate constant in per mole per second for inactivation of the enzyme.
The elastase activity in the crude PMN extract may vary from one preparation to another. A control of each new batch is run, and the volume added in the assay procedure is adjusted according to activity.
`CCC[C@@H](NC(=O)N1C(=O)C(CC)(CC)[C@@H]1OCC(=O)N(CCN(CC)CCOC)C(C)C)c1ccc(C)cc1` [2-(S)-[2-[[2-((2-Methoxyethyl)-ethylamino)ethyl]-isopropylamino]-2-oxoethoxy]-3,3-diethyl-N-[1-(R)-(4-methylphenyl)butyl]-4-oxo-1-azetidinecarboxamide] showed a kinact/KI of 250000 M⁻¹ s⁻¹. `CCC[C@@H](NC(=O)N1C(=O)C(CC)(CC)[C@@H]1OCC(=O)NCCN(CC)CC)c1ccc(C)cc1` [Y=NHCH2 CH2; R5=H; R7=Et; R8=Et, 2-(S)-[2-[[2-(Diethylamino)ethyl]amino]-2-oxoethoxy]-3,3-diethyl-N-[1-(R)-(4-methylphenyl)butyl]-4-oxo-1-azetidinecarboxamide] gave a kinact/KI of 220000 M⁻¹ s⁻¹. With `CCC[C@@H](NC(=O)N1C(=O)C(CC)(CC)[C@@H]1OCC(=O)N(CCC)CCN(CC)CC)c1ccc(C)cc1` [Y=N(Pr)CH2 CH2; R5=H; R7=Et; R8=Et, 2-(S)-[2-[[2-(Diethylamino)ethyl]propylamino]-2-oxoethoxy]-3,3-diethyl-N-[1-(R)-(4-methylphenyl)butyl]-4-oxo-1-azetidinecarboxamide] the kinact/KI was 170000 M⁻¹ s⁻¹. `CCC[C@@H](NC(=O)N1C(=O)C(CC)(CC)[C@@H]1O[C@@H](C)C(=O)N(C)CCN(C)C)c1ccc(C)cc1` [Y=N(Me)CH2 CH2; R5=Me; R7=Me; R8=Me, 2-(S)-[2-[[2-(Dimethylamino)ethyl]methylamino]-2-oxo-(1-(S)-methyl)ethoxy]-3,3-diethyl-N-[1-(R)-(4-methylphenyl)butyl]-4-oxo-l-azetidinecarboxamide] was tested, and the kinact/KI was 1.65e+06 M⁻¹ s⁻¹. `CCC[C@@H](NC(=O)N1C(=O)C(CC)(CC)[C@@H]1OCC(=O)N(CC)CCN(C(C)C)C(C)C)c1ccc(C)cc1` [Y=N(Et)CH2 CH2; R5=H; R7=iPr; R8=iPr, 2-(S)-[2-[[2-(Diisopropylamino)ethyl]ethylamino]-2-oxoethoxy]-3,3-diethyl-N-[1-(R)-(4-methylphenyl)butyl]-4-oxo-1-azetidinecarboxamide] was tested, and the kinact/KI was 189000 M⁻¹ s⁻¹. Compound `CCC[C@@H](NC(=O)N1C(=O)C(CC)(CC)[C@@H]1OCC(=O)N(CCN(CC)CC)C(C)C)c1ccc(C)cc1` [Y=N(iPr)CH2 CH2; R5=H; R7=Et; R8=Et] has a kinact/KI of 175000 M⁻¹ s⁻¹. With `CCC[C@@H](NC(=O)N1C(=O)C(CC)(CC)[C@@H]1OCC(=O)N1CCOCC1)c1ccc(C)cc1` the kinact/KI was 400000 M⁻¹ s⁻¹. Compound `CCC[C@@H](NC(=O)N1C(=O)C(CC)(CC)[C@@H]1OCC(=O)N(CC)CCN(CC)CCOC)c1ccc(C)cc1` [2-(S)-[2-[[2-((2-Methoxyethyl)-ethylamino)ethyl]ethylamino]-2-oxoethoxy]-3,3-diethyl-N-[1-(R)-(4-methylphenyl)butyl]-4-oxo-1-azetidinecarboxamide] has a kinact/KI of 185000 M⁻¹ s⁻¹. For `CCC[C@@H](NC(=O)N1C(=O)C(CC)(CC)[C@@H]1OCC(=O)N(C)CCN(CC)CCOC)c1ccc(C)cc1` [2-(S)-[2-[[2-((2-Methoxyethyl)-ethylamino)ethyl]methylamino]-2-oxoethoxy]-3,3-diethyl-N-[1-(R)-(4-methylphenyl)butyl]-4-oxo-1-azetidinecarboxamide], the kinact/KI was 110000 M⁻¹ s⁻¹. In the case of `CCC[C@@H](NC(=O)N1C(=O)C(CC)(CC)[C@@H]1OCC(=O)N(CC)CC)c1ccc(C)cc1` [Y=co-valent bond; R5=H; R7=Et; R8=Et], the kinact/KI is reported as 315000 M⁻¹ s⁻¹. Work on `CCC[C@@H](NC(=O)N1C(=O)C(CC)(CC)[C@@H]1O[C@@H](C)C(=O)NCCN(CC)CC)c1ccc(C)cc1` [Y=NHCH2 CH2; R5=Me; R7=Et; R8=Et, 2-(S)-[2-[[2-(Diethylamino)ethyl]amino]-2-oxo-(1-(S)-methyl)ethoxy]-3,3-diethyl-N-[1-(R)-(4-methyl-phenyl)butyl]-4-oxo-l-azetidinecarboxamide] yielded a kinact/KI of 1.35e+06 M⁻¹ s⁻¹. In the case of `CCC[C@@H](NC(=O)N1C(=O)C(CC)(CC)[C@@H]1OCC(=O)N(C)CCN(CCOCC)C(C)C)c1ccc(C)cc1` [2-(S)-[2-[[2-((2-Ethoxyethyl)-isopropylamino)ethyl]methylamino]-2-oxoethoxy]-3,3-diethyl-N-[1-(R)-(4-methylphenyl)butyl]-4-oxo-1-azetidinecarboxamide], the kinact/KI is reported as 140000 M⁻¹ s⁻¹. With `CCC[C@@H](NC(=O)N1C(=O)C(CC)(CC)[C@@H]1OCC(=O)N(C)CCN(CC)CC)c1ccc(C)cc1` [Y=N(Me)CH2 CH2; R5=H; R7=Et; R8=Et, 2-(S)-[2-[[2-(Diethylamino)ethyl]methylamino]-2oxoethoxy]-3,3-diethyl-N-[1-(R)-(4-methylphenyl)butyl]-4-oxo-1-azetidinecarboxamide] the kinact/KI was 150000 M⁻¹ s⁻¹. `CCC[C@@H](NC(=O)N1C(=O)C(CC)(CC)[C@@H]1OCC(=O)N(C)CCN1C(C)CCCC1C)c1ccc(C)cc1` (stereo partly drawn) [2-(S)-[2-[[2-(2,6-dimethylpiperidin-1-yl)ethyl]-methylamino]-2-oxoethoxy]-3,3-diethyl-N-[1-(R)-(4-methylphenyl)butyl] -4-oxo-1-azetidinecarboxamide] gave a kinact/KI of 80000 M⁻¹ s⁻¹. `CCC[C@@H](NC(=O)N1C(=O)C(CC)(CC)[C@@H]1OCC(=O)N(C)CCN(CCOC)CCOC)c1ccc(C)cc1` [2-(S)-[2-[[2-(Di-(2-methoxyethyl)amino)ethyl]methylamino]-2-oxoethoxy]-3,3-diethyl-N-[1-(R)-(4-methylphenyl)butyl]-4-oxo-1-azetidinecarboxamide] gave a kinact/KI of 165000 M⁻¹ s⁻¹. For `CCC[C@@H](NC(=O)N1C(=O)C(CC)(CC)[C@@H]1OCC(=O)NCCN1CCOCC1)c1ccc(C)cc1` [Y=NHCH2 CH2; R5=H; R7 R8=CH2 CH2OCH2 CH2, 2-(S)-[2-[[2-(morpholin-1-yl)ethyl]amino]-2-oxoethoxy]-3,3-diethyl-N-[1-(R)-(4-methylphenyl)butyl]-4-oxo-1-azetidinecarboxamide], the kinact/KI was 115000 M⁻¹ s⁻¹. For `CCC[C@@H](NC(=O)N1C(=O)C(CC)(CC)[C@@H]1OCC(=O)N(CC)CCN1CCOCC1)c1ccc(C)cc1` [2-(S)-[2-[[2-(Morpholin-1-yl)ethyl]ethylamino]-2oxoethoxy]-3,3-diethyl-N-[1-(R)-(4-methylphenyl)butyl]-4-oxo-1-azetidinecarboxamide], the kinact/KI was 245000 M⁻¹ s⁻¹. In the case of `CCC[C@@H](NC(=O)N1C(=O)C(CC)(CC)[C@@H]1OCC(=O)N(CCN(C)C)C(C)C)c1ccc(C)cc1` [Y=N(iPr)CH2 CH2; R5=H; R7=Me; R8=Me], the kinact/KI is reported as 175000 M⁻¹ s⁻¹.

Same assay, conditions: pH 7.5; second order rate constant; Formula A, M n-propyl, R2 3,4-methylenedioxy; read-out: kobs /[I]
`CCC[C@@H](NC(=O)N1C(=O)C(CC)(CC)[C@@H]1OCC(=O)N(CCN(C)C)C(C)C)c1ccc2c(c1)OCO2` [2-(S)-[2-[[2-(Dimethylamino)ethyl]-isopropylamino]-2-oxoethoxyl]-3,-3-diethyl-N-[1-(R)-(3,4-methylenedioxyphenyl)-butyl]-4-oxo-1-azetidinecarboxamide] showed a kinact/KI of 500000 M⁻¹ s⁻¹. `CCC[C@@H](NC(=O)N1C(=O)C(CC)(CC)[C@@H]1OCC(=O)N(CC)CCN(C)CCOC)c1ccc2c(c1)OCO2` [2-(S)-[2-[[2-(2-Methoxyethyl)methylamino)ethy]ethylamino]-2-oxoethoxy]-3,3-diethyl-N-[1-(R)-(3,4-methylenedioxyphenyl)butyl]-4-oxo-1-azetidine carboxamide] was tested, and the kinact/KI was 450000 M⁻¹ s⁻¹.

Same assay, conditions: pH 7.5; second order rate constant; Formula A, M n-propyl, R4 piperazine amide with substituent Z; read-out: kobs /[I]
With `CCC[C@@H](NC(=O)N1C(=O)C(CC)(CC)[C@@H]1OCC(=O)N1CCN(C2CC2)CC1)c1ccc2c(c1)OCO2` [2-(S)-[2-[2-(4-Cyclopropyl)piperazin-1-yl]-2-oxoethoxy]-3,3-diethyl-N-[1-(R)-(3,4-methylenedioxyphenyl)-butyl]-4-oxo-1-azetidinecarboxamide] the kinact/KI was 560000 M⁻¹ s⁻¹. Work on `CCC[C@@H](NC(=O)N1C(=O)C(CC)(CC)[C@@H]1OCC(=O)N1CCN(C2CC2)CC1)c1ccc(C)cc1` [R2=4-Me; R5=H; Z=cyclopropyl, 2-(S)-[2-[2-(4-Cyclopropyl)piperazin-1-yl]-2-oxoethoxy]-3,-3-diethyl-N-[1-(R)-(4-methylphenyl)-butyl]-4-oxo-1-azetidinecarboxamide] yielded a kinact/KI of 225000 M⁻¹ s⁻¹. `CCC[C@@H](NC(=O)N1C(=O)C(CC)(CC)[C@@H]1OCC(=O)N1CCNCC1)c1ccc2c(c1)OCO2` [R2=3,4-methylenedioxy-; R5=H; Z=H] gave a kinact/KI of 515000 M⁻¹ s⁻¹. Work on `CCC[C@@H](NC(=O)N1C(=O)C(CC)(CC)[C@@H]1OCC(=O)N1CCN(C)CC1)c1ccc2c(c1)OCO2` [R2=3,4-methylenedioxy-; R5=H; Z=--Me, 2-(S)-[2-[2-(4-Methyl)piperazin-1-yl]-2-oxoethoxy]-3,-3-diethyl-N-[1-(R)-(3,4-methylenedioxyphenyl)-butyl]-4-oxo-1-azetidinecarboxamide] yielded a kinact/KI of 530000 M⁻¹ s⁻¹. `CCC[C@@H](NC(=O)N1C(=O)C(CC)(CC)[C@@H]1OCC(=O)N1CCN(CCO)CC1)c1ccc(C)cc1` [R2=4-Me; R5=H; Z=CH2 CH2 OH, 2-(S)-[2-[2-(4-(2-Hydroxy)ethyl)piperazin-1-yl]-2-oxoethoxy]-3,-3-diethyl-N[1-(R)-(4-methylphenyl)-butyl]-4-oxo-1-azetidinecarboxamide] showed a kinact/KI of 300000 M⁻¹ s⁻¹.
